Several values for one entry are separate records, joined by “and”; a condition that tells them apart may be missing. Equal values may be shown once. Inconclusive results and toxic doses are left out. How the source made its calls: active means survival T/C of 150% or more; inactive means T/C below 125% in these data.
Test system: P388 leukemia ip, CD2F1 mice, survival T/C
Experiment: NCI In Vivo Anticancer Drug Screen. Data for tumor model P388 Leukemia (intraperitoneal) in CD2F1 (CDF1) mice
Conditions: endpoint: median survival time, higher = longer survival
How it was run: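 Mice carrying the transplanted tumor received test compound or vehicle. Survival was recorded in each group, and the value is the treated-group measurement divided by that of the vehicle-treated control group.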

[1] = dose: 12.5 mg/kg/injection, schedule: Q01DX009 (ip), vehicle: saline with Tween-80
[2] = dose: 25.0 mg/kg/injection, schedule: Q01DX009 (ip), vehicle: saline with Tween-80
[3] = dose: 50.0 mg/kg/injection, schedule: Q01DX009 (ip), vehicle: Klucel (hydroxypropylcellulose) (HPC)
[4] = dose: 100.0 mg/kg/injection, schedule: Q01DX009 (ip), vehicle: Klucel (hydroxypropylcellulose) (HPC)
[5] = dose: 200.0 mg/kg/injection, schedule: Q01DX009 (ip), vehicle: Klucel (hydroxypropylcellulose) (HPC)
[6] = dose: 50.0 mg/kg/injection, schedule: Q01DX005 (ip), vehicle: Klucel (hydroxypropylcellulose) (HPC)
[7] = dose: 100.0 mg/kg/injection, schedule: Q01DX005 (ip), vehicle: Klucel (hydroxypropylcellulose) (HPC)
[8] = dose: 200.0 mg/kg/injection, schedule: Q01DX005 (ip), vehicle: Klucel (hydroxypropylcellulose) (HPC)
[9] = dose: 50.0 mg/kg/injection, schedule: Q01DX005 (ip), vehicle: saline with Tween-80
[10] = dose: 100.0 mg/kg/injection, schedule: Q01DX005 (ip), vehicle: saline with Tween-80
[11] = dose: 200.0 mg/kg/injection, schedule: Q01DX005 (ip), vehicle: saline with Tween-80
[12] = dose: 25.0 mg/kg/injection, schedule: Q01DX005 (ip), vehicle: Klucel (hydroxypropylcellulose) (HPC)

Measured: T/C

C=Cn1ccnc1C.C=Cn1ccnc1C.CC(=O)CC(C)=O.CC(=O)CC(C)=O.[Co]
inactive: dose: 12.5 mg/kg/injection, schedule: Q04DX003 (ip), vehicle: saline 117 % of control and 95 % of control | dose: 25.0 mg/kg/injection, schedule: Q04DX003 (ip), vehicle: saline 102 % of control and 117 % of control | dose: 50.0 mg/kg/injection, schedule: Q04DX003 (ip), vehicle: saline 105 % of control and 123 % of control

ClC(Cl)=C(Cl)Cl
inactive: [1] 102 % of control and 107 % of control | dose: 25.0 mg/kg/injection, schedule: Q01DX009 (ip), vehicle: Klucel (hydroxypropylcellulose) (HPC) 100 % of control and 109 % of control | [2] 107 % of control and 114 % of control | [3] 98 % of control and 103 % of control | dose: 50.0 mg/kg/injection, schedule: Q01DX009 (ip), vehicle: saline with Tween-80 105 % of control and 112 % of control | [4] 100 % of control and 107 % of control | dose: 100.0 mg/kg/injection, schedule: Q01DX009 (ip), vehicle: saline with Tween-80 108 % of control and 112 % of control | [5] 100 % of control | dose: 200.0 mg/kg/injection, schedule: Q01DX009 (ip), vehicle: saline with Tween-80 107 % of control and 110 % of control | dose: 300.0 mg/kg/injection, schedule: Q01DX009 (ip), vehicle: Klucel (hydroxypropylcellulose) (HPC) 104 % of control and 106 % of control

Cc1cc(O)c(N=Nc2cc(C)c(C)cc2[N+](=O)[O-])cc1C
inactive: [3] 109 % of control | [4] 109 % of control | [5] 101 % of control

NC(=S)N/N=C/c1cn(-c2ccc(N)cc2)cn1
inactive: dose: 25.0 mg/kg/injection, schedule: Q04DX003 (ip), vehicle: Klucel (hydroxypropylcellulose) (HPC) 100 % of control | dose: 50.0 mg/kg/injection, schedule: Q04DX003 (ip), vehicle: Klucel (hydroxypropylcellulose) (HPC) 91 % of control | dose: 100.0 mg/kg/injection, schedule: Q04DX003 (ip), vehicle: Klucel (hydroxypropylcellulose) (HPC) 100 % of control

COc1cc2c(c3c1c(=O)c1cc(F)ccc1n3C)C=CC(C)(C)O2
inactive: [6] 103 % of control | [7] 100 % of control and 104 % of control | [8] 105 % of control and 98 % of control

C[C@]12CCC[C@@H](O)[C@H]1O2
inactive: dose: 100.0 mg/kg/injection, schedule: Q04DX003 (ip), vehicle: saline 104 % of control | dose: 200.0 mg/kg/injection, schedule: Q04DX003 (ip), vehicle: saline 103 % of control | dose: 400.0 mg/kg/injection, schedule: Q04DX003 (ip), vehicle: saline 109 % of control

COc1ccc2[nH]cc(/C=C(/C)c3ccncc3)c2c1
inactive: dose: 100.0 mg/kg/injection, schedule: Q01DX001 (ip), vehicle: saline with Tween-80 102 % of control | dose: 200.0 mg/kg/injection, schedule: Q01DX001 (ip), vehicle: saline with Tween-80 108 % of control | dose: 400.0 mg/kg/injection, schedule: Q01DX001 (ip), vehicle: saline with Tween-80 108 % of control

O=C(NC(=O)c1cc2cc(Cl)cc(Cl)c2oc1=O)Oc1ccccc1
inactive: [9] 89 % of control | [10] 91 % of control | [11] 98 % of control

COC(=O)C1=C(C)NC(C)=C(C(=O)OC)C1c1cc2ccccc2nc1Cl
inactive: [9] 92 % of control | [10] 88 % of control | [11] 92 % of control

CCCCOc1ccc2nc(C)cc(N=[N+]=[N-])c2c1
inactive: dose: 30.0 mg/kg/injection, schedule: Q01DX005 (ip), vehicle: saline with Tween-80 94 % of control | dose: 60.0 mg/kg/injection, schedule: Q01DX005 (ip), vehicle: saline with Tween-80 86 % of control and 94 % of control | dose: 120.0 mg/kg/injection, schedule: Q01DX005 (ip), vehicle: saline with Tween-80 97 % of control | dose: 240.0 mg/kg/injection, schedule: Q01DX005 (ip), vehicle: saline with Tween-80 92 % of control

NNP(=O)(Oc1ccccc1)Oc1ccccc1
inactive: dose: 3.12 mg/kg/injection, schedule: Q01DX009 (ip), vehicle: saline with Tween-80 110 % of control | dose: 6.25 mg/kg/injection, schedule: Q01DX009 (ip), vehicle: saline with Tween-80 101 % of control | [1] 106 % of control | [2] 109 % of control and 110 % of control

CCOC(=O)Nc1nc2ccccc2n1CN1CCCC1
inactive: [12] 112 % of control | [6] 111 % of control | [7] 114 % of control | [8] 117 % of control

COc1cc([C@@H]2c3cc4c(cc3[C@H](OC(=O)c3ccncc3)[C@H]3COC(=O)[C@H]23)OCO4)cc(OC)c1OC
inactive: dose: 6.25 mg/kg/injection, schedule: Q01DX005 (ip), vehicle: Klucel (hydroxypropylcellulose) (HPC) 101 % of control | dose: 12.5 mg/kg/injection, schedule: Q01DX005 (ip), vehicle: Klucel (hydroxypropylcellulose) (HPC) 104 % of control | [12] 118 % of control

CN1C=CC2C(C#N)CC2C1=O (configuration not stated)
inactive: dose: 100.0 mg/kg/injection, schedule: Q04DX002 (ip), vehicle: saline with Tween-80 101 % of control | dose: 200.0 mg/kg/injection, schedule: Q04DX002 (ip), vehicle: saline with Tween-80 110 % of control | dose: 400.0 mg/kg/injection, schedule: Q04DX002 (ip), vehicle: saline with Tween-80 110 % of control
